Legend:
dopamine reuptake = details: cited from earlier work
[1] = cited from earlier work
[2] = system: boys 9-12 years of age with ADHD combined subtype; assay: Infrared motion analysis of head marker movements during a 15-minute cognitive control task (Quotient Test), PRE and 120 minutes POST probe dose MPH; format: in vivo, human
Description: Data were analyzed from a study approved and monitored by the McLean Hospital Institutional Review Board […]. The ADHD sample consisted of 62 boys between 9-12 years of age who met Diagnostic and Statistical Manual of Mental Disorders, 4th edition (DSM-IV) (Diagnostic and statistical manual of mental disorders: DSM-IV.—4th ed., text revision. Washington, D.C: American Psychiatric Association; 2000) criteria for ADHD combined subtype. Subjects were recruited from the general population via newspaper advertisement for hyperactive boys who were currently or previously treated with MPH, as the protocol called from them to receive a moderately large probe dose of immediate release MPH. This was easier to justify in subjects known to tolerate MPH without untoward effects. Parental written consent and child verbal assent were obtained. […] Seventy-three boys went through the screening procedures, which included structured interviews for DSM-IV Axis I psychiatric diagnoses using K-SADS-E (Orvaschel H, Puig-Antich J. Schedule for Affective Disorder and Schizophrenia for School-Age Children, Epidemiologic Version, Fifth Revision. Fort Lauderdale, Fla.: Nova Southeastern University; 1994); and parent ratings on the Conners' Hyperactivity Index (Conners et al., J Abnorm Child Psychol. 26:257 (1998)) and Achenbach Child Behavior Checklist (CBCL) (Achenbach T. Integrative Guide to the 1991 CBCL/4-18, YSR, and TRF Profiles. Burlington, Vt.: University of Vermont, Department of Psychology; 1991). Children with ADHD could not have any current major mood disorder, psychosis, tic disorder, a major anxiety disorder, or mental retardation. Children with oppositional defiant disorder (ODD), or reported learning disorders, could participate. From this pool of subjects, 11 were excluded from further participation. […] One subject was disqualified for drug use, another was disqualified for current antidepressant treatment of night terrors, and one withdrew before the probe dose. […] In this sample, there were 19 boys with comorbid ODD, 2 with current dysthymia, 4 with learning disorders, and 3 with past major depression or past anxiety disorders. […] Sixty of these subjects were previously included in a study examining fluctuations in attentional state (Teicher et al., J Child Adolesc Psychopharmacol. 14:219 (2004)), and 48 were included in a study on pharmacokinetic-pharmacodynamic response to methylphenidate (Teicher et al., J Child Adolesc Psychopharmacol. 16:416 (2006)).
For comparison, we analyzed data from a representative non-clinical contrast group. This group consisted of 62 male students, randomly selected from a sample of 1168 subjects (6-14 years of age) tested at local public schools using teacher ratings and a computerized attention task with infrared motion analysis (Teicher et al., J Am Acad Child Adolesc Psychiatry 35:334 (1996); Quotient Test, BioBehavioral Diagnostic Company, Cambridge, Mass.). This large-scale database development study was approved by the McLean Hospital IRB and the school administrators. Parents provided written consent and children gave verbal assent to participate. Subjects selected from this sample were male, and matched 1:1 with the ADHD subjects by age to the nearest month (11.0±1.0 years). The selection criteria applied for this analysis was that they needed to have Conners' Teacher Ratings (Conners C K. American Journal of Psychiatry 126:884 (1969)) that were within ±1 SD of the mean of peers their own age and gender (i.e., T score<60), to help exclude subjects with potential ADHD.
Children with ADHD were tested prior to (PRE) and 120-minutes following (POST) a probe dose of 0.4 mg/kg MPH. Contrast subjects only received a single Quotient Test, which was specifically designed to provide objective measures of hyperactivity, inattention and impulsivity (Teicher et al., J Am Acad Child Adolesc Psychiatry 35:334 (1996)). […]

[3] = 2.5 mg of Focalin has the same therapeutic benefit as 5.0 mg of Ritalin; cited from earlier work

SMILES: CC(NC(C)(C)C)C(=O)c1cccc(Cl)c1 (stereo not drawn) [Bupropion]
- potency as inhibitor of dopamine reuptake relative to norepinephrine reuptake (dopamine reuptake): about twice as potent

SMILES: CNCC[C@@H](Oc1ccccc1C)c1ccccc1 [Atomoxetine]
- coverage of symptoms associated with ADHD ([1]; clinical trials in adults and children): 24 h

SMILES: COC(=O)C(c1ccccc1)C1CCCCN1 (stereo not drawn) [MPH, methylphenidate]
- MLE in ADHD after MPH relative to contrast subjects ([2]; ADHD POST vs contrast): 4.8 fold
- ROC Area for MLE, ADHD POST vs contrast subjects ([2]; ADHD POST vs contrast): 0.995
- ROC Area for β, ADHD POST vs contrast subjects ([2]; ADHD POST vs contrast): 0.850
- effect size d' for MLE, ADHD after MPH vs contrast subjects ([2]; ADHD POST vs contrast): 3.1
- percentage of ADHD subjects with evidence for a deterministic chaotic component to head movements after MPH ([2]; MLE vs surrogate data, fell from 84% PRE, 41/62 POST): 66%
- baseline and spike amplitudes and spike numbers relative to contrast group ([2]; Max-Pass, ADHD POST vs contrast controls): suppressed to at or below contrast group levels
- reduction of spike amplitude ([2]; Max-Pass, POST (120 min after 0.4 mg/kg MPH) vs PRE): 52%
- reduction of baseline amplitude ([2]; Max-Pass, POST (120 min after 0.4 mg/kg MPH) vs PRE, 62 ADHD boys): 63%
- reduction of number of spikes ([2]; Max-Pass, POST vs PRE): 35%
- effect size of MPH on ApEn, β and MLE ([2]; POST vs PRE): 1.0-1.2
- within subject reduction in composite inhibitory measures ([2]; baseline and spike amplitude, POST vs PRE): 58.3%±39.9%
- ADHD subjects POST with evidence for a deterministic component to head positions ([2]; correlation dimension method with surrogate data, 56/62 PRE): 62/62
- inhibitory measures POST MPH vs controls ([2]; first 5 minutes of the test): did not differ from controls
- non-linear measures POST MPH vs controls ([2]; first 5 minutes of the test): remained distinctly different than controls
- Spike area (SpArea) PST AVG ([2]; post-medication ADHD subjects, N 62, PRE AVG 100897.28, CTRL AVG 42396.0034): 36631.5066
- baseline and spike amplitudes relative to contrast group ([2]; spike detection by cluster analysis, ADHD POST vs contrast controls): at or below contrast group levels
- reduction in composite measures of positional stability ([2]; β, MLE, POST vs PRE): 16.6%±19.2%

SMILES: COC(=O)[C@H](c1ccccc1)[C@H]1CCCCN1 [Focalin]
- potency relative to methylphenidate [3]: twice as potent
- onset of action, in words ([1]; after administration): immediately
